Some test systems named below: RXF 393 renal; IGROV1 ovarian; SK-MEL-28 melanoma; SNB-75 CNS; UO-31 renal; OVCAR-5 ovarian; SK-MEL-2 melanoma; SF-268 CNS; NCI-H226 lung; LOX IMVI melanoma.
Holding throughout (experiment): NCI tumour cell line growth inhibition, 48 h

Drawing on PubChem BioAssay (NCI), this text covers TGI and GI50 for 19 compounds.

SMILES strings stand for the structures. “And” between values parts separate entries of the source, which are not always exact repeats. Equal entries are not always repeated.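 Where inhibition never reached the appropriate level, the endpoint shown equals the highest concentration tested. Otherwise, values were interpolated linearly from a five-concentration, 48-hour dose response in 96-well plates. Here, GI50 denotes the concentration required for 50% inhibition of growth. TGI denotes the concentration required for complete inhibition of growth.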 Where only a bound is given, the exact number is not on record here.

Regarding `CC1=NN(C(=O)c2ccc(C)cc2)C(=O)C1N=Nc1ccccc1C(=O)O` (stereo unspecified), the TGI is > 100 µM with RXF 393 renal; > 100 µM in the test with IGROV1 ovarian; > 100 µM with SK-MEL-28 melanoma; 98.9 µM with SNB-75 CNS; > 100 µM in the test on UO-31 renal; > 100 µM with OVCAR-5 ovarian. Moreover, the TGI with SK-MEL-2 melanoma, with SF-268 CNS, in the test with NCI-H226 lung and with LOX IMVI melanoma was > 100 µM throughout.
As to `CCOc1cc(/C=C/C(=O)CC(=O)/C=C/c2ccc(OC(=O)CNCCN(CC)CC)c(OCC)c2)ccc1OC(=O)CNCCN(CC)CC`, the GI50 is 0.681 µM with RXF 393 renal; 1.97 µM with IGROV1 ovarian; 1.96 µM in the test with SK-MEL-28 melanoma; 6 µM in the test with SNB-75 CNS; 1.7 µM with UO-31 renal; 2.27 µM in the test with OVCAR-5 ovarian. Moreover, the GI50 in the test on SK-MEL-2 melanoma is 1.68 µM; with SF-268 CNS it was 1.98 µM; in the test on NCI-H226 lung, 2.15 µM; with LOX IMVI melanoma, 1.05 µM. The TGI with RXF 393 renal is 2.03 µM; in the test with IGROV1 ovarian, 3.83 µM; in the test on SK-MEL-28 melanoma, 4.56 µM; in the test on SNB-75 CNS, 62.4 µM; in the test on UO-31 renal it was 3.82 µM; in the test on OVCAR-5 ovarian it was 5.43 µM. Besides, the TGI came out at 3.26 µM with SK-MEL-2 melanoma, 9.64 µM in the test on SF-268 CNS, 5.17 µM with NCI-H226 lung and 2.44 µM in the test with LOX IMVI melanoma.
As to `CCN(CC)C(=S)SSCCO`, the GI50 is 19.4 µM in the test on RXF 393 renal; 15.8 µM in the test on SK-MEL-28 melanoma; 14.8 µM in the test on SNB-75 CNS; 15.8 µM in the test on UO-31 renal; 17.7 µM in the test with OVCAR-5 ovarian; 19.9 µM with SK-MEL-2 melanoma. In addition, the GI50 in the test on SF-268 CNS is 19 µM; in the test with NCI-H226 lung, > 100 µM; in the test on LOX IMVI melanoma it was 19.9 µM. Also, the TGI was found to be 34.8 µM in the test on RXF 393 renal; 29.3 µM with SK-MEL-28 melanoma; 28 µM in the test on SNB-75 CNS; 32.3 µM with UO-31 renal; 31.5 µM in the test with OVCAR-5 ovarian; 39.6 µM in the test on SK-MEL-2 melanoma. Moreover, the TGI with SF-268 CNS was 37.1 µM; in the test on NCI-H226 lung it was > 100 µM; in the test with LOX IMVI melanoma it was 46.3 µM.
In the case of `Cc1ccc2oc3c(ccc(=O)n3C)c(=O)c2c1`, the TGI in the test with RXF 393 renal, in the test with IGROV1 ovarian, in the test on SK-MEL-28 melanoma, in the test with SNB-75 CNS, in the test with UO-31 renal and with OVCAR-5 ovarian was > 100 µM in each case. Besides, the TGI with SK-MEL-2 melanoma, with SF-268 CNS, in the test on NCI-H226 lung and with LOX IMVI melanoma was > 100 µM each time.
Take `CO/C(=N\N=C(/c1ccccc1)C(F)(F)F)c1ccncc1`: the TGI in the test on RXF 393 renal, in the test on IGROV1 ovarian, in the test with SK-MEL-28 melanoma, in the test with SNB-75 CNS, in the test with UO-31 renal and in the test on OVCAR-5 ovarian was > 100 µM in each case. Also, the TGI with SK-MEL-2 melanoma is > 100 µM; with NCI-H226 lung, 77.4 µM.
On to `N/C(=N\N=C/c1cc([N+](=O)[O-])cc([N+](=O)[O-])c1O)NO`, for which the TGI was > 100 µM with RXF 393 renal; > 100 µM in the test with IGROV1 ovarian; > 100 µM with SK-MEL-28 melanoma; > 80.9 µM in the test on SNB-75 CNS; > 100 µM with UO-31 renal; > 87.3 µM with OVCAR-5 ovarian. Also, the TGI with SK-MEL-2 melanoma, in the test with SF-268 CNS, in the test with NCI-H226 lung and in the test with LOX IMVI melanoma was > 100 µM throughout.
For `CC(C)(CC1(C)NC(=O)NC1=O)OCc1ccccc1` (stereo unspecified), the TGI in the test with RXF 393 renal, in the test on IGROV1 ovarian, in the test on SK-MEL-28 melanoma, with SNB-75 CNS, with UO-31 renal and in the test with OVCAR-5 ovarian was > 100 µM throughout. Moreover, the TGI in the test on SK-MEL-2 melanoma, in the test on SF-268 CNS and in the test with LOX IMVI melanoma was > 100 µM throughout.
Consider `Fc1ccc(C(OCCN2CC3CC2CN3)c2ccc(F)cc2)cc1` (stereo unspecified), for which the TGI is > 100 µM with RXF 393 renal; > 100 µM in the test on IGROV1 ovarian; 52.3 µM in the test on SK-MEL-28 melanoma; > 100 µM in the test with SNB-75 CNS; 38.1 µM with SK-MEL-2 melanoma; > 100 µM with SF-268 CNS. In addition, the TGI in the test on NCI-H226 lung and in the test on LOX IMVI melanoma was > 100 µM in each case.
In the case of `CCOC(=O)[C@H]1Nc2c(cccc2[N+](=O)[O-])C2c3ccccc3CC21` (stereo partly specified), the TGI is 45.8 µM in the test with RXF 393 renal; > 100 µM with IGROV1 ovarian; > 100 µM in the test with SK-MEL-28 melanoma; > 100 µM in the test on SNB-75 CNS; > 100 µM with UO-31 renal; > 100 µM in the test on OVCAR-5 ovarian. For the same compound, the TGI in the test with SK-MEL-2 melanoma, with SF-268 CNS, in the test on NCI-H226 lung and in the test on LOX IMVI melanoma was > 100 µM throughout.
With `CC1CCN(c2cc(-c3cc4ccccc4o3)oc(=O)c2C#N)CC1`, the TGI in the test with RXF 393 renal, with IGROV1 ovarian, with SK-MEL-28 melanoma, with SNB-75 CNS, with UO-31 renal and in the test with OVCAR-5 ovarian was > 100 µM in each case. Further, the TGI with SK-MEL-2 melanoma, in the test with SF-268 CNS, in the test on NCI-H226 lung and in the test with LOX IMVI melanoma was > 100 µM each time.
As for `O=c1[nH]c(=S)[nH]c2c(C3OC(CO)C(O)C3O)nsc12` (stereo unspecified), the TGI with RXF 393 renal, in the test on IGROV1 ovarian, in the test on SK-MEL-28 melanoma, with SNB-75 CNS, in the test with OVCAR-5 ovarian and in the test with SK-MEL-2 melanoma was > 100 µM in each case. For the same compound, the TGI with SF-268 CNS, with NCI-H226 lung and in the test on LOX IMVI melanoma was > 100 µM in each case.
Turning to `c1csc(C(NC2=NCCO2)C2CC2)c1` (stereo unspecified), the TGI in the test on RXF 393 renal, in the test with IGROV1 ovarian, with SNB-75 CNS, in the test on UO-31 renal, with OVCAR-5 ovarian and in the test with SK-MEL-2 melanoma was > 100 µM throughout. Also, the TGI in the test with NCI-H226 lung and with LOX IMVI melanoma was > 100 µM each time.
Regarding `COc1cccc(/C=N/[N-]C(N)=O)c1[O-].[OH3+].[Pd+2]`, the TGI with RXF 393 renal, in the test on IGROV1 ovarian, with SK-MEL-28 melanoma, in the test on SNB-75 CNS, in the test on UO-31 renal and with OVCAR-5 ovarian was > 100 µM in each case. Also, the TGI in the test on SK-MEL-2 melanoma, in the test with SF-268 CNS, in the test on NCI-H226 lung and in the test with LOX IMVI melanoma was > 100 µM throughout.
For the compound `CCN1C(=O)N2C(OC)c3ccccc3C(Br)C2(OC)C1=O` (stereo unspecified), the TGI in the test on IGROV1 ovarian, in the test with SK-MEL-28 melanoma, in the test on SNB-75 CNS, with UO-31 renal, in the test on OVCAR-5 ovarian and in the test with SK-MEL-2 melanoma was > 100 µM throughout. Besides, the TGI with NCI-H226 lung and in the test on LOX IMVI melanoma was > 100 µM in each case.
As for `CC(=O)Nc1cc(/C=C\C(=O)N2CC(CCl)c3c2cc(N)c2ccccc32)n(C)n1` (stereo unspecified), the TGI with RXF 393 renal is > 100 µM; in the test with IGROV1 ovarian it was > 100 µM; in the test on SK-MEL-28 melanoma it was 0.0382 µM and 0.177 µM; in the test on SNB-75 CNS, 0.0141 µM and 0.0459 µM; in the test on UO-31 renal, 0.0214 µM; with SK-MEL-2 melanoma it was 0.0416 µM and 0.0479 µM. Moreover, the TGI in the test with SF-268 CNS worked out at 0.211 µM. In addition, the GI50 with NCI-H226 lung was 0.0173 µM.
Regarding `Clc1ccc(-c2nnc(-c3nsc4ccccc34)o2)cc1`, the TGI in the test on RXF 393 renal was 99.4 µM; in the test on IGROV1 ovarian, > 100 µM; with SK-MEL-28 melanoma, > 100 µM; with SNB-75 CNS, 24.6 µM; in the test on UO-31 renal, 47.5 µM; in the test on OVCAR-5 ovarian, > 100 µM. Also, the TGI in the test on SK-MEL-2 melanoma is > 100 µM; with SF-268 CNS it was 66.6 µM; with LOX IMVI melanoma it was > 100 µM.
Consider `N=C(N)c1ccc(N=Nc2c(O)ccc3cc(O)ccc23)cc1`, for which the TGI with RXF 393 renal, with IGROV1 ovarian, with SK-MEL-28 melanoma, in the test on UO-31 renal, in the test with OVCAR-5 ovarian and with SK-MEL-2 melanoma was > 100 µM each time. For the same compound, the TGI in the test with SF-268 CNS and in the test on NCI-H226 lung was > 100 µM in each case.
On to `O=S(=O)(c1ccc2ccccc2c1)N1CCN(S(=O)(=O)c2ccc3ccccc3c2)CC1`, for which the TGI is > 100 µM in the test on RXF 393 renal; > 100 µM in the test on IGROV1 ovarian; > 100 µM in the test on SK-MEL-28 melanoma; 60 µM with SNB-75 CNS; > 100 µM in the test with UO-31 renal; > 100 µM in the test with OVCAR-5 ovarian. Besides, the TGI with SK-MEL-2 melanoma, in the test with SF-268 CNS, with NCI-H226 lung and in the test on LOX IMVI melanoma was > 100 µM each time.
With `O=C(/C=C\c1ccc(/C=C/C(=O)Nc2cccc(C3=NCCCN3)c2)cc1)Nc1cccc(C2=NCCCN2)c1`, the TGI in the test on RXF 393 renal, with IGROV1 ovarian, with SK-MEL-28 melanoma, in the test on SNB-75 CNS, in the test on UO-31 renal and with OVCAR-5 ovarian was > 100 µM throughout. Besides, the TGI with SK-MEL-2 melanoma and with LOX IMVI melanoma was > 100 µM each time.
